Source: US5955497A, “Bioactive acetogenins” (Purdue Research Foundation, priority 1998, dated 1999)
Values after ≈ are worked out from the molar mass of the structure shown. “Also recorded” adds a separate entry of the source.

Columns and labels:
[1] = in vivo; design: species or system Artemia salina Leach (brine shrimp); conditions: brine shrimp larvae, read-out: BST LC30
Method: (§1) The cytotoxicities of squamotacin, molvizarin and bullatacin were evaluated, in the same run, against a panel of six cell lines (Table 1). Adriamycin was included as a standard. The relative cytotoxicity of the compounds to non-tumor cells was determined based on the brine shrimp lethality assay (BSA). The panel of tumor cell lines tested includes human lung carcinoma (A-549), human breast carcinoma (MCF-7), human colon adenocarcinoma (HT-29), human renal carcinoma (A-498), human prostate adenocarcinoma (PC-3) and human pancreatic carcinoma (PACA-2).
(§2) The brine shrimp (Artemia salina Leach) test (BST) was performed as modified to determine LC50 values in μg/ml. Zhao et al., Phytochemistry, 33, p. 1065 (1993). Seven-day in vitro cytotoxicity tests against human tumor cell lines were carried out at the Purdue Cancer Center, using standard protocols for A-549 (human lung carcinoma), MCF-7 (human breast carcinoma) and HT-29 (human colon carcinoma), human renal carcinoma (A-498), human prostate adenocarcinoma (PC-3) and human pancreatic carcinoma (PACA-2) with adriamycin as a positive control. The reported ED50 values in μg/ml (Table 1) were tabulated from the same run, except where noted, in order to facilitate comparison for the SAR's.

[2] = tested on: PC-3 (human prostate adenocarcinoma); experiment: seven-day in vitro cytotoxicity, PC-3; type: cell-based; conditions: for activity relative to the positive control adriamycin: PC-3, versus adriamycin; for selectivity for the prostate cell line (PC-3): PC-3, versus other cell lines of Table 1
Method: as §1, §2

[3] = tested on: panel of six cell lines (A-549, MCF-7, HT-29, A-498, PC-3, PACA-2); experiment: cytotoxicity against the panel of six human tumor cell lines; type: cell-based; conditions: for spectra of cytotoxic selectivities, squamotacin versus molvizarin: Table 1
Method: as §1, §2

[4] = tested on: A2780 human ovarian cancer xenografts; conditions: 50 μg/kg, athymic mice bearing A2780 human ovarian cancer xenografts; cited from earlier work

CCCCCCCCCCCC[C@H](O)[C@H]1CC[C@H]([C@H]2CC[C@H]([C@H](O)CCCCCCCC[C@@H](O)CC3=C[C@H](C)OC3=O)O2)O1 [Compound 1, squamotacin]
LC50 [1]: 6.8 ng/mL (≈ 0.0109 µM) | activity relative to the positive control adriamycin [2]: over 100 million | selectivity for the prostate cell line (PC-3) [2]: high selectively for the prostate cell line (PC-3); also recorded: high selectivity | spectra of cytotoxic selectivities, squamotacin versus molvizarin [3]: quite similar | activity relative to bullatacin in the cell panel ([3]; six cell lines, versus bullatacin): less activity than bullatacin in five of the six cell lines tested, with HT-29 (colon) being the exception

CCCCCCCCCC[C@H](O)[C@H]1CC[C@H]([C@H]2CC[C@H]([C@H](O)CCCCCCCC[C@@H](O)CC3=C[C@H](C)OC3=O)O2)O1 [Compound 2, molvizarin]
activity relative to the positive control adriamycin [2]: over 100 million | selectivity for the prostate cell line (PC-3) [2]: high selectively for the prostate cell line (PC-3); also recorded: showed selectivity for PC-3; also recorded: high selectivity | spectra of cytotoxic selectivities, squamotacin versus molvizarin [3]: quite similar

CCCCCCCCCC[C@H](O)[C@H]1CC[C@H]([C@H]2CC[C@H]([C@H](O)CCCCCCCCCC[C@@H](O)CC3=C[C@H](C)OC3=O)O2)O1 [Compound 3, bullatacin]
tumor growth inhibition (TGI) [4]: 67%
